Data reported in PubChem BioAssay AID256 (DTP/NCI, 2004).
“And” between values parts separate entries of the source, which are not always exact repeats. Identical values can stand only once. Inconclusive results and toxic doses are left out.

System: CD2F1 mice, L1210 leukemia ip, survival T/C
Experiment: NCI In Vivo Anticancer Drug Screen. Data for tumor model L1210 Leukemia (intraperitoneal) in CD2F1 (CDF1) mice
Settings: endpoint: mean survival time, higher = longer survival
Procedure, shortened: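 Ratio T/C, where T is the treated-group value and C the vehicle-dosed control value, from mice implanted with a transplantable tumor.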

[1] = dose: 100.0 mg/kg/injection, schedule: Q04DX003 (ip), vehicle: saline with Tween-80
[2] = dose: 200.0 mg/kg/injection, schedule: Q04DX003 (ip), vehicle: saline with Tween-80
[3] = dose: 25.0 mg/kg/injection, schedule: Q04DX002 (ip), vehicle: saline with Tween-80
[4] = dose: 50.0 mg/kg/injection, schedule: Q04DX002 (ip), vehicle: saline with Tween-80

## CC(C)c1cc(O)ccc1N(C)C (tested in a mixture with another compound)
dose: 32.0 micrograms/kg/injection, schedule: Q04DX003 (ip), vehicle: saline
  T/C: 102 % of control
dose: 63.0 micrograms/kg/injection, schedule: Q01DX001 (ip), vehicle: saline
  T/C: 98 % of control
dose: 63.0 micrograms/kg/injection, schedule: Q04DX003 (ip), vehicle: saline
  T/C: 101 % of control
dose: 125.0 micrograms/kg/injection, schedule: Q01DX001 (ip), vehicle: saline
  T/C: 98 % of control
dose: 125.0 micrograms/kg/injection, schedule: Q04DX003 (ip), vehicle: saline
  T/C: 90 % of control

## O=C(Nc1ccc(F)cc1)c1cccc(Cl)c1
dose: 100.0 mg/kg/injection, schedule: Q01DX009 (ip), vehicle: saline with Tween-80
  T/C: 98 % of control
[1]
  T/C: 94 % of control
dose: 200.0 mg/kg/injection, schedule: Q01DX009 (ip), vehicle: saline with Tween-80
  T/C: 90 % of control
[2]
  T/C: 94 % of control
dose: 400.0 mg/kg/injection, schedule: Q01DX009 (ip), vehicle: saline with Tween-80
  T/C: 96 % of control
dose: 400.0 mg/kg/injection, schedule: Q04DX003 (ip), vehicle: saline with Tween-80
  T/C: 95 % of control

## O=C1N[C@@H]([C@H]2CC[C@H](Cl)CN2)C(=O)N[C@H]1[C@H]1CC[C@H](Cl)CN1
dose: 0.25 mg/kg/injection, schedule: Q01DX009 (iv), vehicle: saline
  T/C: 100 % of control
dose: 0.25 mg/kg/injection, schedule: Q03HX016 (ip), vehicle: saline
  T/C: 115 % of control
dose: 0.5 mg/kg/injection, schedule: Q01DX009 (iv), vehicle: saline
  T/C: 112 % of control
dose: 0.5 mg/kg/injection, schedule: Q01DX009 (oral), vehicle: saline
  T/C: 108 % of control
dose: 0.5 mg/kg/injection, schedule: Q03HX016 (ip), vehicle: saline
  T/C: 151 % of control
dose: 0.5 mg/kg/injection, schedule: Q03HX024 (ip), vehicle: saline
  T/C: 196 % of control
dose: 1.0 mg/kg/injection, schedule: Q01DX001 (iv), vehicle: saline
  T/C: 108 % of control
dose: 1.0 mg/kg/injection, schedule: Q01DX009 (ip), vehicle: saline
  T/C: 167 % of control
dose: 1.0 mg/kg/injection, schedule: Q01DX009 (oral), vehicle: saline
  T/C: 160 % of control
dose: 1.0 mg/kg/injection, schedule: Q03HX008 (ip), vehicle: saline
  T/C: 305 % of control
dose: 1.0 mg/kg/injection, schedule: Q03HX016 (ip), vehicle: saline
  T/C: 252 % of control
dose: 1.0 mg/kg/injection, schedule: Q03HX024 (ip), vehicle: saline
  T/C: 300 % of control
dose: 1.0 mg/kg/injection, schedule: Q04DX003 (oral), vehicle: saline
  T/C: 116 % of control
dose: 1.0 mg/kg/injection, schedule: Q08DX002 (ip), vehicle: saline
  T/C: 120 % of control
dose: 2.0 mg/kg/injection, schedule: Q01DX001 (iv), vehicle: saline
  T/C: 109 % of control
dose: 2.0 mg/kg/injection, schedule: Q01DX001 (oral), vehicle: saline
  T/C: 111 % of control
dose: 2.0 mg/kg/injection, schedule: Q01DX001 (sc), vehicle: saline
  T/C: 123 % of control
dose: 2.0 mg/kg/injection, schedule: Q01DX009 (ip), vehicle: saline
  T/C: 223 % of control
dose: 2.0 mg/kg/injection, schedule: Q01DX009 (iv), vehicle: saline
  T/C: 160 % of control
dose: 2.0 mg/kg/injection, schedule: Q01DX009 (oral), vehicle: saline
  T/C: 158 % of control
dose: 2.0 mg/kg/injection, schedule: Q03HX008 (ip), vehicle: saline
  T/C: 354 % of control
dose: 2.0 mg/kg/injection, schedule: Q03HX016 (ip), vehicle: saline
  T/C: 95 % of control
dose: 2.0 mg/kg/injection, schedule: Q03HX024 (ip), vehicle: saline
  T/C: 93 % of control
dose: 2.0 mg/kg/injection, schedule: Q04DX003 (ip), vehicle: saline
  T/C: 171 % of control
dose: 2.0 mg/kg/injection, schedule: Q04DX003 (oral), vehicle: saline
  T/C: 119 % of control
dose: 2.0 mg/kg/injection, schedule: Q08DX002 (oral), vehicle: saline
  T/C: 117 % of control
dose: 2.5 mg/kg/injection, schedule: Q01DX001 (ip), vehicle: water
  T/C: 155 % of control
dose: 4.0 mg/kg/injection, schedule: Q01DX001 (ip), vehicle: saline
  T/C: 157 % of control
dose: 4.0 mg/kg/injection, schedule: Q01DX001 (oral), vehicle: saline
  T/C: 124 % of control
dose: 4.0 mg/kg/injection, schedule: Q01DX009 (ip), vehicle: saline
  T/C: 107 % of control
dose: 4.0 mg/kg/injection, schedule: Q01DX009 (iv), vehicle: saline
  T/C: 157 % of control
dose: 4.0 mg/kg/injection, schedule: Q01DX009 (oral), vehicle: saline
  T/C: 86 % of control
dose: 4.0 mg/kg/injection, schedule: Q04DX003 (ip), vehicle: saline
  T/C: 188 % of control and 221 % of control
dose: 4.0 mg/kg/injection, schedule: Q04DX003 (oral), vehicle: saline
  T/C: 156 % of control
dose: 4.0 mg/kg/injection, schedule: Q08DX002 (ip), vehicle: saline
  T/C: 179 % of control
dose: 5.0 mg/kg/injection, schedule: Q01DX001 (ip), vehicle: water
  T/C: 241 % of control and 269 % of control
dose: 6.0 mg/kg/injection, schedule: Q01DX001 (ip), vehicle: saline
  T/C: 261 % of control
dose: 6.7 mg/kg/injection, schedule: Q01DX001 (ip), vehicle: saline
  T/C: 188 % of control
dose: 8.0 mg/kg/injection, schedule: Q01DX001 (ip), vehicle: saline
  T/C: 286 % of control and 501 % of control
dose: 8.0 mg/kg/injection, schedule: Q01DX001 (iv), vehicle: saline
  T/C: 157 % of control
dose: 8.0 mg/kg/injection, schedule: Q01DX001 (oral), vehicle: saline
  T/C: 154 % of control and 175 % of control
dose: 8.0 mg/kg/injection, schedule: Q01DX001 (sc), vehicle: saline
  T/C: 162 % of control
dose: 8.0 mg/kg/injection, schedule: Q04DX003 (ip), vehicle: saline
  T/C: 246 % of control
dose: 8.0 mg/kg/injection, schedule: Q04DX003 (oral), vehicle: saline
  T/C: 164 % of control
dose: 8.0 mg/kg/injection, schedule: Q08DX002 (ip), vehicle: saline
  T/C: 415 % of control
dose: 8.0 mg/kg/injection, schedule: Q08DX002 (oral), vehicle: saline
  T/C: 155 % of control
dose: 10.0 mg/kg/injection, schedule: Q01DX001 (ip), vehicle: water
  T/C: 296 % of control and 349 % of control
dose: 16.0 mg/kg/injection, schedule: Q01DX001 (iv), vehicle: saline
  T/C: 212 % of control
dose: 16.0 mg/kg/injection, schedule: Q01DX001 (oral), vehicle: saline
  T/C: 100 % of control
dose: 16.0 mg/kg/injection, schedule: Q01DX001 (sc), vehicle: saline
  T/C: 94 % of control
dose: 16.0 mg/kg/injection, schedule: Q04DX003 (ip), vehicle: saline
  T/C: 94 % of control and 95 % of control
dose: 16.0 mg/kg/injection, schedule: Q04DX003 (oral), vehicle: saline
  T/C: 90 % of control
dose: 16.0 mg/kg/injection, schedule: Q08DX002 (ip), vehicle: saline
  T/C: 100 % of control
dose: 16.0 mg/kg/injection, schedule: Q08DX002 (oral), vehicle: saline
  T/C: 90 % of control

## C[n+]1ccccc1SC12CC3CC(CC(C3)C1)C2
dose: 2.5 mg/kg/injection, schedule: Q01DX009 (ip), vehicle: Klucel (hydroxypropylcellulose) (HPC)
  T/C: 98 % of control
dose: 5.0 mg/kg/injection, schedule: Q01DX009 (ip), vehicle: Klucel (hydroxypropylcellulose) (HPC)
  T/C: 98 % of control
dose: 10.0 mg/kg/injection, schedule: Q01DX009 (ip), vehicle: Klucel (hydroxypropylcellulose) (HPC)
  T/C: 103 % of control

## O=C(O)COc1cccc(OCC(=O)O)c1
[1]
  T/C: 100 % of control
dose: 100.0 mg/kg/injection, schedule: Q04DX003 (ip), vehicle: saline
  T/C: 96 % of control
[2]
  T/C: 91 % of control
dose: 200.0 mg/kg/injection, schedule: Q04DX003 (ip), vehicle: saline
  T/C: 94 % of control
dose: 400.0 mg/kg/injection, schedule: Q04DX003 (ip), vehicle: saline
  T/C: 100 % of control

## CC1CC(C)(C)NC(CC2CCCCC2O)O1 (stereo not given)
[1]
  T/C: 94 % of control

## O=C(CC(=O)C(F)(F)F)C(F)(F)F.[C-]#[O+].[C-]#[O+].[Mn].c1ccc([PH+](c2ccccc2)c2ccccc2)cc1.c1ccc([PH+](c2ccccc2)c2ccccc2)cc1
dose: 12.5 mg/kg/injection, schedule: Q04DX002 (ip), vehicle: saline with Tween-80
  T/C: 91 % of control
[3]
  T/C: 91 % of control
[4]
  T/C: 95 % of control

## C=C(N=[N+]=[N-])c1ccccc1
dose: 12.5 mg/kg/injection, schedule: Q01DX009 (ip), vehicle: other
  T/C: 110 % of control
dose: 25.0 mg/kg/injection, schedule: Q01DX009 (ip), vehicle: other
  T/C: 100 % of control
dose: 50.0 mg/kg/injection, schedule: Q01DX009 (ip), vehicle: other
  T/C: 100 % of control
dose: 100.0 mg/kg/injection, schedule: Q01DX009 (ip), vehicle: other
  T/C: 102 % of control

## CCC(=O)OC(=N)C(=N)OC(=O)CC
[3]
  T/C: 98 % of control
[4]
  T/C: 98 % of control
dose: 100.0 mg/kg/injection, schedule: Q04DX002 (ip), vehicle: saline with Tween-80
  T/C: 98 % of control
dose: 200.0 mg/kg/injection, schedule: Q04DX002 (ip), vehicle: saline with Tween-80
  T/C: 95 % of control
